According to the C3SDB collision cross section collection:

Details: [M+Cs]+; instrument: DT; stepped-field

Row | collision cross section (N2) | SMILES
1 | 275.6 Å² | CC(=O)N[C@H]1[C@H](O[C@H]2[C@@H](O)[C@@H](CO)O[C@@H](O[C@H]3[C@H](O)[C@@H](O)C(O)O[C@@H]3CO)[C@@H]2O)O[C@H](CO)[C@@H](O)[C@@H]1O[C@@H]1O[C@H](CO)[C@H](O)[C@H](O)[C@H]1O[C@@H]1O[C@@H](C)[C@@H](O)[C@@H](O)[C@@H]1O (stereo partly drawn) [Lacto-N-Fucopentaose I]

Same assay, conditions: [M+H]+; instrument: DT; stepped-field

Row | collision cross section (N2) | SMILES
2 | 228.7 Å² | CCC(C)[C@H](NC(=O)[C@@H](NC(=O)[C@@H](N)CCSC)C(C)C)C(=O)N[C@@H](CCCNC(=N)N)C(=O)O (stereo partly drawn) [MVIR]

Same assay, conditions: [M+K]+; instrument: DT; stepped-field

Row | collision cross section (N2) | SMILES
3 | 311 Å² | CCC=CCC=CCC=CCC=CCC=CCC=CCC=CCC(=O)OC[C@H](COP(=O)(O)OC[C@H](N)C(=O)O)OC(=O)CC=CCC=CCC=CCC=CCC=CCC=CCC=CCC [PS(48:14)]
4 | 316.4 Å² | CCCCC=CCC=CCC=CCC=CCC=CCC=CCC=CCC=CCC(=O)N[C@@H](CO[C@@H]1O[C@H](CO)[C@@H](O)C(O)C1O)[C@H](O)CC=CCCCCCCCCCCCC (stereo partly drawn) [GlcCer(47:9)]
5 | 298.2 Å² | CC/C=C\C/C=C\C/C=C\C/C=C\C/C=C\C/C=C\CCC(=O)O[C@H](COC(=O)CCCCCCCCCCCCCC)COP(=O)([O-])OCC[N+](C)(C)C [PC(37:6)]
6 | 289.8 Å² | CCCCC/C=C\C/C=C\CCCCCCCC(=O)O[C@H](COC(=O)CCCCCCCCCCCCCCCCCC)COP(=O)(O)OCCN [PE(37:2)]

Further lines, the compound ahead of its results:

Row | SMILES | collision cross section (N2)
7 | CC/C=C\C/C=C\C/C=C\C/C=C\C/C=C\CCCC(=O)O[C@H](COC(=O)CCCCCCC/C=C\CCCCCCCCC)COP(=O)([O-])OCC[N+](C)(C)C [PC(39:6)] | 303.4 Å²
8 | CC(=O)N[C@H]1[C@H](O[C@H]2[C@@H](O)[C@@H](CO)O[C@@H](O[C@H]3[C@H](O)[C@@H](O)C(O)O[C@@H]3CO)[C@@H]2O)O[C@H](CO)[C@@H](O)[C@@H]1O[C@@H]1O[C@H](CO)[C@H](O)[C@H](O)[C@H]1O[C@@H]1O[C@@H](C)[C@@H](O)[C@@H](O)[C@@H]1O (stereo partly drawn) [Lacto-N-Fucopentaose I] | 274.7 Å²
9 | CC/C=C\C/C=C\C/C=C\C/C=C\C/C=C\C/C=C\CCC(=O)O[C@H](COC(=O)CCCCCCCCCCCC)COP(=O)([O-])OCC[N+](C)(C)C [PC(35:6)] | 291.8 Å²

Same assay, conditions: [M+Li]+; instrument: DT; stepped-field

Row | collision cross section (N2) | SMILES
10 | 269.6 Å² | CC(=O)N[C@H]1[C@H](O[C@H]2[C@@H](O)[C@@H](CO)O[C@@H](O[C@H]3[C@H](O)[C@@H](O)C(O)O[C@@H]3CO)[C@@H]2O)O[C@H](CO)[C@@H](O)[C@@H]1O[C@@H]1O[C@H](CO)[C@H](O)[C@H](O)[C@H]1O[C@@H]1O[C@@H](C)[C@@H](O)[C@@H](O)[C@@H]1O (stereo partly drawn) [Lacto-N-Fucopentaose I]

Same assay, conditions: [M+Na]+; instrument: DT; stepped-field

Row | collision cross section (N2) | SMILES
11 | 276.1 Å² | CC(=O)N[C@H]1[C@H](O[C@H]2[C@@H](O)[C@@H](CO)O[C@@H](O[C@H]3[C@H](O)[C@@H](O)C(O)O[C@@H]3CO)[C@@H]2O)O[C@H](CO)[C@@H](O)[C@@H]1O[C@@H]1O[C@H](CO)[C@H](O)[C@H](O)[C@H]1O[C@@H]1O[C@@H](C)[C@@H](O)[C@@H](O)[C@@H]1O (stereo partly drawn) [Lacto-N-Fucopentaose I]
12 | 312 Å² | CCC=CCC=CCC=CCC=CCC=CCC=CCC=CCC(=O)OC[C@H](COP(=O)(O)OC[C@H](N)C(=O)O)OC(=O)CC=CCC=CCC=CCC=CCC=CCC=CCC=CCC [PS(48:14)]
13 | 295.6 Å² | CC/C=C\C/C=C\C/C=C\C/C=C\C/C=C\C/C=C\CCC(=O)OC[C@H](COP(=O)(O)OC[C@H](N)C(=O)O)OC(=O)CCCCCCC/C=C\CCCCCCCC [PS(40:7)]
14 | 288.2 Å² | CCCCC/C=C\C/C=C\CCCCCCCC(=O)O[C@H](COC(=O)CCCCCCCCCCCCCCCCCC)COP(=O)(O)OCCN [PE(37:2)]

Same assay, conditions: [M+Rb]+; instrument: DT; stepped-field

Row | collision cross section (N2) | SMILES
15 | 275.2 Å² | CC(=O)N[C@H]1[C@H](O[C@H]2[C@@H](O)[C@@H](CO)O[C@@H](O[C@H]3[C@H](O)[C@@H](O)C(O)O[C@@H]3CO)[C@@H]2O)O[C@H](CO)[C@@H](O)[C@@H]1O[C@@H]1O[C@H](CO)[C@H](O)[C@H](O)[C@H]1O[C@@H]1O[C@@H](C)[C@@H](O)[C@@H](O)[C@@H]1O (stereo partly drawn) [Lacto-N-Fucopentaose I]

Details: [M+H]+; instrument: TW; Major Mix IMS/Tof Calibration Kit (Waters)

Row | collision cross section (N2) | SMILES
16 | 160 Å² | CCC(c1ccccc1)c1c(O)c2ccccc2oc1=O (stereo not drawn) [Phenprocoumon]
17 | 197.8 Å² | COCCOC(=O)C1=C(C)NC(C)=C(C(=O)OC(C)C)C1c1cccc([N+](=O)[O-])c1 (stereo not drawn) [Nimodipine]
18 | 159.5 Å² | C=CCc1ccccc1OCC(O)CNC(C)C (stereo not drawn) [Alprenolol]
19 | 177.4 Å² | C=C[C@H]1C[N@@]2CC[C@H]1C[C@H]2[C@H](O)c1ccnc2ccc(OC)cc12 [Quinine]
20 | 226.4 Å² | CCCCc1oc2ccccc2c1C(=O)c1cc(I)c(OCCN(CC)CC)c(I)c1 [Amiodarone]
21 | 197.8 Å² | COc1ccc([C@@H]2Sc3ccccc3N(CCN(C)C)C(=O)[C@@H]2OC(C)=O)cc1 [Diltiazem]
22 | 172.6 Å² | OC(CCN1CCCC1)(c1ccccc1)C1CCCCC1 (stereo not drawn) [Procyclidine]
23 | 165.9 Å² | N=C(N)Nc1nc(CSCCC(=N)NS(N)(=O)=O)cs1 [Famotidine]
24 | 222.7 Å² | CN(C)C(=O)C(CCN1CCC(O)(c2ccc(Cl)cc2)CC1)(c1ccccc1)c1ccccc1 [Loperamide]
25 | 166.5 Å² | CN(C)CCCN1c2ccccc2CCc2ccccc21 [Imipramine]
26 | 176.5 Å² | CNCCC(Oc1ccc(C(F)(F)F)cc1)c1ccccc1 (stereo not drawn) [Fluoxetine]
27 | 175.5 Å² | Clc1ccc2c(c1)CCc1cccnc1C2=C1CCNCC1 [Desloratadine]
28 | 183.4 Å² | CCN1CC(CCN2CCOCC2)C(c2ccccc2)(c2ccccc2)C1=O (stereo not drawn) [Doxapram]
29 | 192.2 Å² | O=C(NCC1CCCCN1)c1cc(OCC(F)(F)F)ccc1OCC(F)(F)F (stereo not drawn) [Flecainide]
30 | 186.1 Å² | CN1CCC[C@@H]1Cc1c[nH]c2ccc(CCS(=O)(=O)c3ccccc3)cc12 [Eletriptan]
31 | 129.8 Å² | CC(=O)Nc1cccc(O)c1 [Metacetamol]
32 | 186.6 Å² | C[C@]12CCC(=O)C=C1CC[C@@H]1[C@@H]2[C@@H](O)C[C@@]2(C)[C@H]1CC[C@]2(O)C(=O)CO [Hydrocortisone]
33 | 178.7 Å² | CNCCC[C@@]1(c2ccc(F)cc2)OCc2cc(C#N)ccc21 [Citalopram-M N-desmethyl]

Further lines, the compound ahead of its results:

Row | SMILES | collision cross section (N2)
34 | c1ccc2c(c1)Cc1cccnc1N1CCNCC21 (stereo not drawn) [Mirtazapine-M N-desmethyl] | 156.9 Å²
35 | CCN(CC)CCc1c[nH]c2ccccc12 ["NN-Diethyltryptamine"] | 148.6 Å²
36 | Cc1cccc(C)c1NC1=NCCCS1 [Xylazine] | 147.9 Å²
37 | CCN(CC)C(=O)[C@@H]1C=C2c3cccc4[nH]cc(c34)C[C@H]2N(C)C1 [LSD] | 179.5 Å²
38 | Clc1ccc2c(c1)N=C(N1CCNCC1)c1ccccc1N2 [Clozapine-M nor] | 173.8 Å²
39 | CN(C)CCCN1c2ccccc2Sc2ccccc21 [Promazine] | 161.5 Å²
40 | O=c1[nH]c2ccccc2n1C1CCN(CCCC(c2ccc(F)cc2)c2ccc(F)cc2)CC1 [Pimozide] | 214.4 Å²
41 | Cc1ccccc1-n1c(C)nc2ccccc2c1=O [Methaqualone] | 155 Å²
42 | C[C@@H](Cc1ccccc1)N(C)Cc1ccccc1 [Benzphetamine] | 154.8 Å²
43 | CCCC(NC)C(=O)c1ccccc1 (stereo not drawn) [Pentedrone] | 145.7 Å²
44 | C=C[C@H]1C[N@@]2CC[C@H]1C[C@@H]2[C@@H](O)c1ccnc2ccc(OC)cc12 [Quinidine] | 175.8 Å²
45 | Cc1ccc2nc(-c3ccc(C(=O)O)cc3)c(CC(=O)N(C)C)n2c1 [Zolpidem-M Carboxylic acid] | 184.4 Å²
46 | CCOC(=O)c1ncn2c1CN(C)C(=O)c1cc(F)ccc1-2 [Flumazenil] | 165.8 Å²
47 | CCN1CCCC1CNC(=O)c1cc(S(N)(=O)=O)ccc1OC (stereo not drawn) [Sulpiride] | 184.3 Å²
48 | Cc1cc(=O)n(-c2ccccc2)n1C [Phenazone] | 137.7 Å²
49 | COc1ccc(CCNCCCC(C#N)(c2ccc(OC)c(OC)c2)C(C)C)cc1OC (stereo not drawn) [Verapamil-M nor] | 207.3 Å²
50 | CC(CN(C)C)CN1c2ccccc2CCc2ccccc21 (stereo not drawn) [Trimipramine] | 171.2 Å²
51 | NC(=O)N1c2ccccc2CC(=O)c2ccccc21 [Oxcarbazepine] | 153.8 Å²
52 | CNCCCC1c2ccccc2C=Cc2ccccc21 [Protriptyline] | 162.8 Å²
53 | CCN(CC)CCCC(C)Nc1ccnc2cc(Cl)ccc12 (stereo not drawn) [Chloroquine] | 176.8 Å²
